We go through 3 compounds from US12122756B2, “Biflavone compound against I-type herpes simplex virus, and preparation method therefor and use thereof” (priority 2022, dated 2024).

The test system of one series is Vero cells. Description: Cytotoxic assay of tested drugs against Vero cells (CCK-8). It counts as cell-based, African green monkey. The note with it: for highest non-toxic concentration: Vero cells, CCK-8. The protocol: 3. Cytotoxic assay of tested drugs against Vero cells: Vero cells were seed in a 96 well plate at 3×10^4 cells/well. The next day, after growing into a monolayer, the test drug was diluted to obtain 8-9 concentrations and added to each well. Meanwhile, a normal control group was established, with 4 replicate wells for each group. After 72 hours, the toxicity of the test drug to Vero cells was measured using CCK-8 assay, and the highest non-toxic concentration and half toxic concentration (TC50) of the drug on the cells were calculated.

The subject of another series is HSV-I. In words: Cytopathic effect (CPE) assay: inhibition of pathological changes of Vero cells induced by HSV-I (CCK-8). The note with it: for inhibitory effect on HSV-I induced cytopathic changes (in words): CPE method; for Inhibition rate (%) / OD value: n = 5. It counts as cell-based, Herpes simplex virus type I. The protocol: (1) Determination of the inhibitory activities of the test drugs on pathological changes of Vero cells induced by HSV-I using the cytopathic effect (CPE) assay: Vero cells were seeded in a 96-well plate and grew into a monolayer the next day. 100TCID50 HSV-I was added to infect cells, and then the cell maintenance solution containing different concentrations of the test drug was replaced, and a cell control group was included. The cells were cultured in an incubator for 72 hours. Then, the inhibitory effect of the drug on virus-induced cytopathic changes was measured using the CCK-8 assay, and thus the 50% inhibiting concentration (IC50) of the drug was calculated.
For orientation: Damage to the host cells serves as the signal in cytopathic effect assays.

Series [1] in a line: Solubility (highest solubility used as starting concentration; water solubility).
[2] abbreviates: 1st (highest) concentration (971, 1600, 2620, 390 μg·ml^−1 for Compounds 1-4), 72 h.
[3] abbreviates: 2nd concentration, 50% serial dilution from column-head concentration, 72 h.
The mark [4] stands for this setting: 3rd concentration, 50% serial dilution from column-head concentration, 72 h.
Where [5] appears, read: 4th concentration, 50% serial dilution from column-head concentration, 72 h.
Setting [6] is: 5th concentration, 50% serial dilution from column-head concentration, 72 h.
Setting [7] is: 6th concentration, 50% serial dilution from column-head concentration, 72 h.
Setting [8] is: 7th concentration, 50% serial dilution from column-head concentration, 72 h.
Where [9] appears, read: 8th concentration, 50% serial dilution from column-head concentration, 72 h.
Setting [10] is: 9th concentration, 50% serial dilution from column-head concentration, 72 h.
[11] abbreviates: Concentration 1 (3 concentrations, 50% dilution based on highest non-toxic concentration).

Where two headings read alike, the source gives them in different places. Marks after values point to notes of the source that are not given here.

For `COc1c(O)cc2occ(-c3ccc(O)c(S(=O)(=O)[O-])c3)c(=O)c2c1O.[Na+]` [Compound 1, sodium tectorigenin-5′-sulphonate], the “TC50 on Vero cells” value in the series on Vero cells amounted to 390.312 µg/mL. For the same compound, the “growth inhibition rate (%) on Vero cells” value was 57.86** % with Vero cells (setting [2]); 49.99** % in the series on Vero cells (setting [3]); 42.06** % in the series with Vero cells (setting [4]); 39.97** % with Vero cells (setting [5]); 34.95** % in the series on Vero cells (setting [6]); 28.48** % with Vero cells (setting [7]). For the same compound, the entries for the “growth inhibition rate (%) on Vero cells” value in the series on Vero cells (setting [8]), with Vero cells (setting [9]) and with Vero cells (setting [10]) were 27.14** %, 25.37** % and −1.57%, respectively. Also, the “inhibitory effect on HSV-I induced cytopathic changes (in words)” value in the series on HSV-I is “the effect was not significant”. Further, the “Inhibition rate (%)” value with HSV-I (setting [11]) was 4.41%; with HSV-I (Concentration 2), 3.29%; in the series on HSV-I (Concentration 3), 2.26%. In addition, the OD value in the series on HSV-I (setting [11]) amounted to 0.37 ± 0.04; in the series on HSV-I (Concentration 2) it was 0.37 ± 0.02; in the series with HSV-I (Concentration 3), 0.36 ± 0.03.

What is called solubility is how much of the substance goes into solution per volume. Take `CCOc1ccc(-c2coc3cc(OCC)c(OC)c(O)c3c2=O)cc1S(=O)(=O)[O-].[Na+]` [Compound 3, sodium 4,7′-diethyltectorigenin-5′-sulphonate]: the “growth inhibition rate (%) on Vero cells” value is 45.06** % in the series on Vero cells (setting [2]); 40.80** % with Vero cells (setting [3]); 36.94** % in the series with Vero cells (setting [4]); 34.23** % with Vero cells (setting [5]); 32.36** % with Vero cells (setting [6]); 27.12** % in the series with Vero cells (setting [7]). Also, the “growth inhibition rate (%) on Vero cells” value in the series with Vero cells (setting [8]) is 25.55** %; in the series on Vero cells (setting [9]), 22.06** %; in the series on Vero cells (setting [10]), −0.24%. For the same compound, the “TC50 on Vero cells” value with Vero cells (72 h, CCK-8, Probit regression) was 3020.44 µg/mL. The compound also had a highest non-toxic concentration in the series with Vero cells (72 h) of 3.496 µg/mL. Also, in the series with HSV-I, the “inhibitory effect on HSV-I induced cytopathic changes (in words)” value is “no significant inhibitory effect”. Besides, the “Inhibition rate (%)” value in the series with HSV-I (setting [11]) worked out at 6.20%; with HSV-I (Concentration 2), 8.65%; in the series with HSV-I (Concentration 3), 4.09%. The results for the OD value in the series with HSV-I (setting [11]), in the series with HSV-I (Concentration 2) and in the series with HSV-I (Concentration 3) were 0.38 ± 0.05, 0.39 ± 0.10 and 0.37 ± 0.03, respectively. In series [1], the solubility came out at 2620 µg/mL.

Take `CCOc1ccc(-c2coc3c(Cc4c(OCC)c(OC)c(O)c5c(=O)c(-c6ccc(OCC)c(S(=O)(=O)[O-])c6)coc45)c(OCC)c(OC)c(O)c3c2=O)cc1S(=O)(=O)[O-].[Na+].[Na+]` [Compound 4, sodium 8,8″-methylene-di-(4,7′-diethyltectorigenin-5′-sulphonate)]: the “growth inhibition rate (%) on Vero cells” value with Vero cells (setting [2]) is 28.40** %; in the series on Vero cells (setting [3]), 27.54** %; with Vero cells (setting [4]) it was 26.53** %; in the series on Vero cells (setting [5]), 23.48** %; in the series with Vero cells (setting [6]) it was 22.02** %; with Vero cells (setting [7]), 18.43** %. In addition, the “growth inhibition rate (%) on Vero cells” value in the series on Vero cells (setting [8]) was 14.94** %; in the series with Vero cells (setting [9]), 9.42%; with Vero cells (setting [10]) it was −23.23%. Moreover, the “TC50 on Vero cells” value in the series on Vero cells (72 h, CCK-8, Probit regression) was found to be 11308.7 µg/mL. Further, the highest non-toxic concentration in the series on Vero cells (72 h) was found to be 0.864 µg/mL. Besides, the “inhibitory effect on HSV-I induced cytopathic changes (in words)” value in the series on HSV-I was “no significant inhibitory effect”. Further, the “Inhibition rate (%)” value in the series with HSV-I (setting [11]) turned out to be 5.96%; with HSV-I (Concentration 2) it was 6.09%; in the series on HSV-I (Concentration 3) it was 5.99%. The values for the OD value in the series with HSV-I (setting [11]), with HSV-I (Concentration 2) and in the series with HSV-I (Concentration 3) were 0.32 ± 0.02, 0.32 ± 0.01 and 0.32 ± 0.01, respectively. Further, in series [1], the solubility worked out at 390 µg/mL.
